Series [1] has as its target T1, Virulence sensor histidine kinase PhoQ (Salmonella typhimurium (strain LT2 / SGSC1412 / ATCC 700720), UniProt P0DM80).
T1 sequence (P0DM80 whole entry): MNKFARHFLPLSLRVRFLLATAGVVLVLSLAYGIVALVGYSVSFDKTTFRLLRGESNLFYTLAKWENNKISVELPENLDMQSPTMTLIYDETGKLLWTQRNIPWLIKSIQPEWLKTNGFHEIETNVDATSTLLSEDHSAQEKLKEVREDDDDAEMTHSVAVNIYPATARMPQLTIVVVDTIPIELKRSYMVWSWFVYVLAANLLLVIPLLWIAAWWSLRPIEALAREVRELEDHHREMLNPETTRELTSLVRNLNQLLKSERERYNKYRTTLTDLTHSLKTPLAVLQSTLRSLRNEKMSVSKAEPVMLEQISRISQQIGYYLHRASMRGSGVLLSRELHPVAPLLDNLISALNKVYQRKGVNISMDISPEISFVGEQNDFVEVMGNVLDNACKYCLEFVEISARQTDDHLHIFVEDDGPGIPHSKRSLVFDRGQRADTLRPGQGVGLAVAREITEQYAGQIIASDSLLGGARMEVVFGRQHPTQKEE
Put plainly: Displacement of TNP-ATP from recombinant Salmonella typhimurium GST-tagged DHp-catalytic domain PhoQ (332 to 487 residues) expressed in Escherichia coli XA90 aafter 10 mins by fluorescence assay. Also noted: species or system Salmonella enterica subsp. enterica serovar Typhimurium.

The nature of series [2]: Hemolytic activity against sheep RBC at 0.5 mM after 30 mins relative to control. The format is ADME, cell-based, Ovis aries, Erythrocyte. Conditions: sheep red blood cells (erythrocytes), read-out: Activity.
The target of series [3] is T1, Virulence sensor histidine kinase PhoQ. The series is described as follows: Inhibition of recombinant Salmonella typhimurium N-terminal His6-SUMO-tagged DHp-catalytic domain PhoQ (257 to 487 residues) autophosphorylation expressed in Escherichia coli BL21 (DE3) preincubated for 10 mins followed by [gamma-32P]-ATP addition after 30 mins by phosphotransferase dot blot assay. Also noted: species or system Salmonella enterica subsp. enterica serovar Typhimurium.

For series [4], the target named is Cell cycle histidine kinase CckA (Caulobacter vibrioides, UniProt Q9X688). Put plainly: Inhibition of recombinant Caulobacter vibrioides cell cycle histidine kinase CckA deltaTM mutant DHp domain (70 to 691 residues) expressed in Escherichia coli in presence of varying levels of ATP measured every 60 secs for 2 hrs by PK/LDH enzyme coupled assay.
Series [5] addresses T2, Cell cycle histidine kinase CckA (Caulobacter vibrioides, UniProt Q9X688).
T2 sequence (Q9X688 whole entry): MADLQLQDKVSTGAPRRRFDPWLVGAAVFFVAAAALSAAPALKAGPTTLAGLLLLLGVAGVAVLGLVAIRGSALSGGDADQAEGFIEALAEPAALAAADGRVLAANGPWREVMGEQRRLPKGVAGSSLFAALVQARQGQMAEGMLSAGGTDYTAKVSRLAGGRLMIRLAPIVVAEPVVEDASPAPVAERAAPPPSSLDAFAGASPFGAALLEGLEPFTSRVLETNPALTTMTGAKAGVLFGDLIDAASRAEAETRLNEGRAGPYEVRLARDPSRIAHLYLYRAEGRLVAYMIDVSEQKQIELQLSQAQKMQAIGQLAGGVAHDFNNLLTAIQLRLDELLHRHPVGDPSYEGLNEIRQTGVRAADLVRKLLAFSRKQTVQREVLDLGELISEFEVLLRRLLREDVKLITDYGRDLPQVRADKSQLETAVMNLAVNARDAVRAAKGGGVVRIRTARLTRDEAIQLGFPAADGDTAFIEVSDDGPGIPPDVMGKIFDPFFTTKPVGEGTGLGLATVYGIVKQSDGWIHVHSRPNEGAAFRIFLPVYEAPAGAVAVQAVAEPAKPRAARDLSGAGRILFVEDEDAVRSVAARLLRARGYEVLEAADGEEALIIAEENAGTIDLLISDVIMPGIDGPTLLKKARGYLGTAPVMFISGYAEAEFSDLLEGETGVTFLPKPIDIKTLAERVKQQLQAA
Put plainly: Competitive inhibition of Caulobacter vibrioides full length wild type cell cycle histidine kinase CckA deltaTM Escherichia coli BL21-AI in presence of varying levels of ATP measured every 60 secs for 2 hrs by Lineweaver-Burk plot analysis.

The target in series [6] is T3, Sensor protein kinase WalK family protein (Streptococcus pneumoniae PCS8203, UniProt A0A0H2UQD0).
T3 sequence (A0A0H2UQD0 whole entry): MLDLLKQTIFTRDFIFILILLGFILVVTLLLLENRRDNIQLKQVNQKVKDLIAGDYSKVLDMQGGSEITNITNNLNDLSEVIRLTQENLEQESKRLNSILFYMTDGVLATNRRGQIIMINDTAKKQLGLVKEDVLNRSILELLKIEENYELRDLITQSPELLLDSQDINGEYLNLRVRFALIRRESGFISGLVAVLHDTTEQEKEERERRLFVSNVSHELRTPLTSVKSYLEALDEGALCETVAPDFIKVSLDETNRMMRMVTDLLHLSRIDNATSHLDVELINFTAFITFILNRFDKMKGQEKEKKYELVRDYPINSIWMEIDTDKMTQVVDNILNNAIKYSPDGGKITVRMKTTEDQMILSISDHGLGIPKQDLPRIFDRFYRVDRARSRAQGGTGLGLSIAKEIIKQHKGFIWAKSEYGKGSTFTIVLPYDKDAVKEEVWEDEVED
The series is described as follows: Inhibition of Streptococcus pneumoniae VicK preincubated for 30 mins followed by [gamma-33P]ATP addition after 30 mins by SDS-PAGE method.

Another series has as its system Escherichia coli. Put plainly: Antimicrobial activity against Escherichia coli DC2 after 20 hrs by Mueller-Hinton Broth microdilution method. Type of series: functional. Conditions: DC2, 20 h. (In general: Dilution methods test growth across graded concentrations, often in twofold steps.)
A further series deals with Bacillus subtilis. Put plainly: Antimicrobial activity against Bacillus subtilis 3610 after 20 hrs by Mueller-Hinton Broth microdilution method. Type of series: functional. Conditions: subsp. subtilis str. NCIB 3610, 20 h.
Compound in series [7]: COc1ccc(-c2c(C)n[nH]c2-c2cc(Cl)c(O)cc2O)cc1
The series is described as follows: Competitive inhibition of Caulobacter vibrioides full length wild type Cell cycle histidine kinase CckA deltaTM expressed in Escherichia coli BL21-AI assessed as enzyme Km in presence of varying levels of ATP measured every 60 secs for 2 hrs by Lineweaver-Burk plot analysis.

≈ marks a conversion by molar mass, not a printed value.

In the case of `CC(C)=CCc1c(O)cc2occ(Cl)c(=O)c2c1O`, the Kd in series [1] was 391 µM.

For the molecule `COc1ccc(-c2c(-c3cc(Cl)c(O)cc3O)n[nH]c2C)cc1`, the hemolysis at 0.5 h, 500 µM in series [2] amounted to 3%. In addition, the figures for the IC50 in series [3] and in series [4] were 238 µM and 12.3 to 14 µM, respectively. The Ki in series [5] came out at 3.8 µM.

Take `Nc1nc2ccc(Oc3ccc4nc(N)sc4c3)cc2s1`: 75 µM corresponded to half-maximal inhibition in [6] (IC50). For the same molecule, the MIC in the series on Escherichia coli is 32 to 64 µg/mL (≈ 102 to 204 µM); in the series on Bacillus subtilis, 49 to 64 µg/mL (≈ 156 to 204 µM).

B1: Cell cycle histidine kinase CckA (Caulobacter vibrioides), Q9X688 (protein)
chain: MADLQLQDKVSTGAPRRRFDPWLVGAAVFFVAAAALSAAPALKAGPTTLAGLLLLLGVAGVAVLGLVAIRGSALSGGDADQAEGFIEALAEPAALAAADGRVLAANGPWREVMGEQRRLPKGVAGSSLFAALVQARQGQMAEGMLSAGGTDYTAKVSRLAGGRLMIRLAPIVVAEPVVEDASPAPVAERAAPPPSSLDAFAGASPFGAALLEGLEPFTSRVLETNPALTTMTGAKAGVLFGDLIDAASRAEAETRLNEGRAGPYEVRLARDPSRIAHLYLYRAEGRLVAYMIDVSEQKQIELQLSQAQKMQAIGQLAGGVAHDFNNLLTAIQLRLDELLHRHPVGDPSYEGLNEIRQTGVRAADLVRKLLAFSRKQTVQREVLDLGELISEFEVLLRRLLREDVKLITDYGRDLPQVRADKSQLETAVMNLAVNARDAVRAAKGGGVVRIRTARLTRDEAIQLGFPAADGDTAFIEVSDDGPGIPPDVMGKIFDPFFTTKPVGEGTGLGLATVYGIVKQSDGWIHVHSRPNEGAAFRIFLPVYEAPAGAVAVQAVAEPAKPRAARDLSGAGRILFVEDEDAVRSVAARLLRARGYEVLEAADGEEALIIAEENAGTIDLLISDVIMPGIDGPTLLKKARGYLGTAPVMFISGYAEAEFSDLLEGETGVTFLPKPIDIKTLAERVKQQLQAA
For B1, the Km in [7] was found to be 17.9 µM.

As usually defined, the Kd is the free concentration of one partner at which half of the binding sites on the other are occupied at equilibrium, for simple one-to-one binding. As usually defined, the IC50 is the concentration needed to halve the response being measured. As a reminder, the Ki is the dissociation constant of the complex between target and ligand, obtained from inhibition or displacement. The MIC is the least concentration at which growth counts as inhibited. By Km is commonly meant the concentration of substrate that gives half-maximal velocity.
